# ChEMBL document CHEMBL4831551, “Novel Heteroaromatic Carboxamides as Plasma Kallikrein Inhibitors for Treating Diabetic Complications, Ocular Diseases, and Edema-Associated Diseases” (ACS Med Chem Lett, 2021)
# Target: Plasma kallikrein (Homo sapiens, UniProt P03952)
# Test: Inhibition of kallikrein (unknown origin) using H-Pro-Phe-Arg-AMC as substrate incubated for 1 hr by fluorescence based analysis
# Plasma kallikrein, sequence (P03952 20-390 limits assumed): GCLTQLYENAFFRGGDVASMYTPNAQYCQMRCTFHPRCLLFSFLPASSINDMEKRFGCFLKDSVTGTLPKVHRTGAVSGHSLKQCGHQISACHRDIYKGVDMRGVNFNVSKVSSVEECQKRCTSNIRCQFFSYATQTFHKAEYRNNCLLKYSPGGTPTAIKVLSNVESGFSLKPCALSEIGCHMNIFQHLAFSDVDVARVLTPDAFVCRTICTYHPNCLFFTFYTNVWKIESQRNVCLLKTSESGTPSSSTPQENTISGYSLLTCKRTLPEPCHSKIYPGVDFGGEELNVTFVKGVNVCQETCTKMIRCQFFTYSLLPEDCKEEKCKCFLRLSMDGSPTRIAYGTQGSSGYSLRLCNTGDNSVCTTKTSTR
# Plasma kallikrein, sequence (P03952 391-638 limits assumed): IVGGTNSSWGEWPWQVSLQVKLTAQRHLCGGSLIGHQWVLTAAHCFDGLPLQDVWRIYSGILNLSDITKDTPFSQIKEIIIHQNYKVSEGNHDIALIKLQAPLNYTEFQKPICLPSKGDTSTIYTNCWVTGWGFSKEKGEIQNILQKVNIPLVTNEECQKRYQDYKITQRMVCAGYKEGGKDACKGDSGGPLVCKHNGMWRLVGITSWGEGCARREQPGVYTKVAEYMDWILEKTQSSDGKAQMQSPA
row,IC50 [nM],Compound
1,0.8,Cc1[nH]nc2c1CC[C@H]2NC(=O)c1cnn(Cc2ccc(N3CC4CC4C3)nc2C(F)F)c1 (stereo partly specified)
2,0.5,Cc1[nH]nc2c1CC[C@H]2NC(=O)c1cn(Cc2ccc(N3CC4(CC4)C3)nc2C(F)F)cn1
3,0.6,Cc1[nH]nc2c1CC[C@H]2NC(=O)c1cn(Cc2ccc(N3CC4C(C3)C4(F)F)nc2C(F)F)cn1 (stereo partly specified)
4,0.5,Cc1[nH]nc2c1CC[C@H]2NC(=O)c1cn(Cc2ccc(N3CC4(CC4)C3)nc2C(F)F)nn1
5,0.7,Cc1[nH]nc2c1CC[C@H]2NC(=O)c1cn(Cc2ccc(N3CC4CC4C3)nc2C(F)F)cn1 (stereo partly specified)
6,0.8,Cc1[nH]nc2c1CC[C@H]2NC(=O)c1cnn(Cc2ccc(N3CC4C(C3)C4(F)F)nc2C(F)F)c1 (stereo partly specified)
